Among the data in US20230365526A1, “PYRIDAZINE DERIVATIVES FOR MODULATING NUCLEIC ACID SPLICING” (REMIX THERAPEUTICS INC., priority 2020, published 2023) are AC50 and IC50 values, retold here.

Where a name gives a salt, the structure may show the parent alone. Read-outs that look alike come from different tables or passages of the source. Where only a bound is given, the exact number is not on record here.

Common to all, as to format: cell-based
Experiment [1] deals with HTT mRNA. Description: RT-qPCR splicing assay monitoring HTT canonical (CJ) and alternative (AJ) junction mRNA in A673 or K562 cells. To be noted: 24 hours compound treatment, top dose 10 uM. The method, then: (§1) Compounds described herein were used to modulate RNA transcript abundance in cells. The expression of a target mRNA was measured by detecting the formation of an exon-exon junction in the canonical transcript (CJ). A compound mediated exon-inclusion event was detected by observing an increase in formation of a new junction with an alternative exon (AJ). Real-time qPCR assays were used to detect these splicing switches and interrogate the potency of various compounds towards different target genes. A high-throughput real time quantitative PCR (RT-qPCR) assay was developed to measure these two isoforms of the mRNA (CJ and AJ) for an exemplary gene, HTT, together with a control housekeeping gene, GAPDH or GUSB or PPIA, used for normalization. Briefly, the A673 or K562 cell line was treated with various compounds described herein (e.g., compounds of Formula (I)). After treatment, the levels of the HTT mRNA targets were determined from each sample of cell lysate by cDNA synthesis followed by qPCR.
• Cells-to-CT 1-step kit: ThermoFisher A25602, Cells-to-CT lysis reagent: ThermoFisher 4391851C, TaqMan™ Fast Virus 1-Step Master Mix: ThermoFisher 4444436 • GAPDH: VIC-PL, ThermoFisher 4326317E (Assay: Hs99999905_m1)—used for K562/suspension cell lines • GUSB: VIC-PL, ThermoFisher 4326320E (Assay: Hs99999908_m1)—used for K562/suspension cell lines • PPIA: VIC-PL, ThermoFisher 4326316E (Assay: Hs99999904_m1)—used for A673/adherent cell lines
(§2) The A673 cell line was cultured in DMEM with 10% FBS. Cells were diluted with full growth media and plated in a 96-well plate (15,000 cells in 100 ul media per well). The plate was incubated at 37° C. with 5% CO2 for 24 hours to allow cells to adhere. An 11-point 3-fold serial dilution of the compounds was made in DMSO then diluted in media in an intermediate plate. Compounds were transferred from the intermediate plate to the cell plate with the top dose at a final concentration of 10 uM in the well. Final DMSO concentration was kept at or below 0.25%. The cell plate was returned to the incubator at 37° C. with 5% CO2 for an additional 24 hours.
(§3) The K562 cell line was cultured in IMDM with 10% FBS. For K562, cells were diluted with full growth media and plated in either a 96-well plate (50,000 cells in 50 uL media per well) or a 384-well plate (8,000-40,000 cells in 45 uL media per well). An 11-point 3-fold serial dilution of the compounds were made in DMSO then diluted in media in an intermediate plate. Compound was transferred from the intermediate plate to the cell plate with the top dose at a final concentration of 10 uM in the well. Final DMSO concentration was kept at or below 0.25%. Final volume was 100 uL for 96-well plate and 50 uL for 384-well plate. The cell plate was then placed in an incubator at 37° C. with 5% CO2 for 24 hours.
(§4) The cells were then gently washed with 50 uL-100 uL cold PBS before proceeding to addition of lysis buffer. 30 uL-50 uL of room temperature lysis buffer with DNAse I (and optionally RNAsin) was added to each well. Cells were shaken/mixed thoroughly at room temperature for 5-10 minutes for lysis to take place and then 3 uL-5 uL of room temperature stop solution was added and wells were shaken/mixed again. After 2-5 minutes, the cell lysate plate was transferred to ice for RT-qPCR reaction setup. The lysates could also be frozen at −80° C. for later use.
In some cases, a direct lysis buffer was used. An appropriate volume of 3×lysis buffer (10 mM Tris, 150 mM NaCl, 1.5%-2.5% Igepal and 0.1-1 U/uL RNAsin, pH 7.4) was directly added to either K562 or A673 cells in media and mixed by pipetting 3 times. The plates were then incubated at room temperature with shaking/rocking for 20-50 minutes to allow for lysis to take place. After this time, the cell lysate plate was transferred to ice to set up for the RT-qPCR reactions. The lysates could also be frozen at −80° C. for later use. […]

Experiment [2] concerns Target C. The experiment can be described thus: Gene panel canonical junction RT-qPCR assay: Target C. To be noted: read-out: Target C (IC50, decrease in CJ mRNA levels). The method, then:
as §1, §2, §3, §4
(§5) In some cases, a direct lysis buffer was used. An appropriate volume of 3×lysis buffer (10 mM Tris, 150 mM NaCl, 1.5%-2.5% Igepal and 0.1-1 U/uL RNAsin, pH 7.4) was directly added to either K562 or A673 cells in media and mixed by pipetting 3 times. The plates were then incubated at room temperature with shaking/rocking for 20-50 minutes to allow for lysis to take place. After this time, the cell lysate plate was transferred to ice to set up for the RT-qPCR reactions. The lysates could also be frozen at −80° C. for later use.
(§6) To set up 10 uL RT-qPCR reactions, cell lysates were transferred to 384-well qPCR plates containing the master mix according to the table below. The plates were sealed, gently vortexed, and spun down before the run. The volumes were adjusted accordingly in some instances where the reaction was carried in 20 uL. The table below summarizes the components of the RT-qPCR reactions:
(§7) The RT-qPCR reaction was performed using a QuantStudio (ThermoFisher) under the following fast cycling conditions. […]

The test system of experiment [3] is HTT. Description: Gene panel canonical junction RT-qPCR assay: HTT. To be noted: read-out: HTT (IC50, decrease in CJ mRNA levels). The method, then:
as §1, §2, §3, §4, §5, §6, §7
In general terms: Quantitative PCR measures a nucleic acid by following its amplification.

Setting [4] is: decrease in CJ mRNA, read-out: HTT CJ AC50.
Where [5] appears, read: increase in AJ mRNA, read-out: HTT AJ AC50.

One may read the AC50 as the midpoint of the concentration-response curve, whichever way the signal moves. Take `C[C@@H]1C[C@H](N(C)c2ccc(-c3ccc(-c4cn[nH]c4)c(=O)[nH]3)nn2)CCN1` [Compound 126, 6-(6-[methyl[(2R,4R)-2-methylpiperidin-4-yl]amino]pyridazin-3-yl)-3-(1H-pyrazol-4-yl)-1H-pyridin-2-one]: the AC50 in experiment [1] (setting [4]) and in experiment [1] (setting [5]) was more than 10 µM in each case.
Turning to `CN(c1ccc(-c2ccc(-c3cn[nH]c3)c(=O)[nH]2)nn1)[C@@H]1C[C@H]2CC[C@@H](C1)N2` [Compound 129, 6-[6-[(1R,3S,5S)-8-azabicyclo[3.2.1]octan-3-yl(methyl)amino]pyridazin-3-yl]-3-(1H-pyrazol-4-yl)-1H-pyridin-2-one], the AC50 in experiment [1] (setting [4]) and in experiment [1] (setting [5]) was 1 to 10 µM in each case.
The term IC50 denotes the concentration needed to halve the response being measured. Turning to `COc1nc(-c2ccc(N(C)[C@H]3CCN[C@@H](C)C3)nn2)ccc1-n1cccn1` [Compound 135, 6-[6-methoxy-5-(pyrazol-1-yl)pyridin-2-yl]-N-methyl-N-[(2S,4S)-2-methylpiperidin-4-yl]pyridazin-3-amine], the IC50 in experiment [2] is less than 0.1 µM; in experiment [3], more than 10 µM. Also, the AC50 in experiment [1] (setting [4]) and in experiment [1] (setting [5]) was more than 10 µM throughout.
In the case of `CN(c1ccc(-c2ccc(-c3cn[nH]c3)c(C(F)(F)F)n2)nn1)[C@@H]1C[C@H]2CC[C@@H](C1)N2` [Compound 236], the half-inhibitory concentration (IC50) in experiment [2] and in experiment [3] was more than 10 µM throughout. Further, the AC50 in experiment [1] (setting [4]) and in experiment [1] (setting [5]) was more than 10 µM throughout.
Take `COc1nc(-c2ccc(OC3CC(C)(C)NC(C)(C)C3)nn2)ccc1-c1cn[nH]c1` [Compound 244, 3-[6-methoxy-5-(1H-pyrazol-4-yl)pyridin-2-yl]-6-[(2,2,6,6-tetramethylpiperidin-4-yl)oxy] pyridazine]: the results for the IC50 in experiment [2] and in experiment [3] were 0.1 to 1 µM and less than 0.1 µM, respectively. The AC50 in experiment [1] (setting [4]) and in experiment [1] (setting [5]) was 0.1 to 1 µM in each case.
Regarding `COc1nc(-c2ccc(OC3CC(C)(C)NC(C)(C)C3)nn2)ccc1-c1cnn(C)c1` [Compound 245, 3-[6-methoxy-5-(1-methylpyrazol-4-yl)pyridin-2-yl]-6-[(2,2,6,6-tetramethylpiperidin-4-yl)oxy]pyridazine], the IC50 in experiment [2] is 0.1 to 1 µM; in experiment [3], less than 0.1 µM. Besides, the AC50 in experiment [1] (setting [4]) and in experiment [1] (setting [5]) was 0.1 to 1 µM in each case.
Turning to `COc1nc(-c2ccc(N(C)C3CC(C)(C)NC(C)(C)C3)nn2)ccc1-c1cn[nH]c1` [Compound 246, 6-[6-methoxy-5-(1H-pyrazol-4-yl)pyridin-2-yl]-N-methyl-N-(2,2,6,6-tetramethylpiperidin-4-yl)pyridazin-3-amine], the concentration for half-maximal inhibition (IC50) was 0.1 to 1 µM in experiment [2] and less than 0.1 µM in experiment [3]. Moreover, the AC50 in experiment [1] (setting [4]) is less than 0.1 µM; in experiment [1] (setting [5]), 0.1 to 1 µM.
For the molecule `COc1nc(-c2ccc(N(C)C3CC(C)(C)NC(C)(C)C3)nn2)ccc1-c1cnn(C)c1` [Compound 247, 6-[6-methoxy-5-(1-methylpyrazol-4-yl)pyridin-2-yl]-N-methyl-N-(2,2,6,6-tetramethylpiperidin-4-yl)pyridazin-3-amine], the values for the IC50 in experiment [2] and in experiment [3] were 0.1 to 1 µM and less than 0.1 µM, respectively. The AC50 in experiment [1] (setting [4]) and in experiment [1] (setting [5]) was 0.1 to 1 µM in each case.
`COc1cc(-c2ccc(N(C)[C@@H]3C[C@H]4CC[C@@H](C3)N4)nn2)ncc1-c1cn[nH]c1` [Compound 248]: the IC50 in experiment [2] and in experiment [3] was more than 10 µM in each case. Also, the AC50 in experiment [1] (setting [4]) and in experiment [1] (setting [5]) was more than 10 µM throughout.
With `CN(c1ccc(-c2ccc(-c3cn[nH]c3)c(F)n2)nn1)[C@@H]1C[C@H]2CC[C@@H](C1)N2` [Compound 249, (1R,3R,5S)—N-{6-[6-fluoro-5-(1H-pyrazol-4-yl)pyridin-2-yl]pyridazin-3-yl}-N-methyl-8-azabicyclo[3.2.1]octan-3-amine hydrochloride], the IC50 in experiment [2] and in experiment [3] was less than 0.1 µM in each case. Besides, the AC50 in experiment [1] (setting [4]) and in experiment [1] (setting [5]) was less than 0.1 µM each time.
Consider `CN(c1ccc(-c2ccc(-c3cn[nH]c3)c(Cl)n2)nn1)[C@@H]1C[C@H]2CC[C@@H](C1)N2` [Compound 250, (exo)-N-{6-[6-chloro-5-(1H-pyrazol-4-yl)pyridin-2-yl]pyridazin-3-yl}-N-methyl-8-azabicyclo[3.2.1]octan-3-amine], for which the IC50 is 0.1 to 1 µM in experiment [2] and less than 0.1 µM in experiment [3]. In addition, the AC50 in experiment [1] (setting [4]) and in experiment [1] (setting [5]) was less than 0.1 µM throughout.
`COc1nc(-c2ccc(NC3CCNCC3)nn2)ccc1-c1cnn(C)c1` [Compound 257, 6-[6-methoxy-5-(1-methylpyrazol-4-yl)pyridin-2-yl]-N-(piperidin-4-yl)pyridazin-3-amine]: the IC50 in experiment [2] and in experiment [3] was 1 to 10 µM in each case. The AC50 in experiment [1] (setting [4]) and in experiment [1] (setting [5]) was 1 to 10 µM each time.
On to `COc1nc(-c2ccc(OC3CC(C)(C)NC(C)(C)C3)nn2)ccc1-c1cnn(C)n1` [Compound 258, 3-[6-methoxy-5-(2-methyl-1,2,3-triazol-4-yl)pyridin-2-yl]-6-[(2,2,6,6-tetramethylpiperidin-4-yl)oxy]pyridazine], for which the IC50 in experiment [2] is 1 to 10 µM; in experiment [3] it was 0.1 to 1 µM. The concentration at half-maximal activity (AC50) in experiment [1] (setting [4]) was in the range of 0.1 to 1 µM; in experiment [1] (setting [5]) it was 1 to 10 µM.
For the molecule `COc1nc(-c2ccc(N(C)C3CC(C)(C)NC(C)(C)C3)nn2)ccc1-c1cnn(C)n1` [Compound 259], the IC50 in experiment [2] and in experiment [3] was 0.1 to 1 µM each time. In addition, the AC50 in experiment [1] (setting [4]) was in the range of 0.1 to 1 µM; in experiment [1] (setting [5]) it was 1 to 10 µM.
With `COc1nc(-c2ccc(N(C)[C@@H]3C[C@H]4CC[C@@H](C3)N4)nn2)cnc1-c1cn[nH]c1` [Compound 260, (1R,3R,5S)—N-{6-[6-methoxy-5-(1H-pyrazol-4-yl)pyrazin-2-yl]pyridazin-3-yl}-N-methyl-8-azabicyclo [3.2.1] octan-3-amine hydrochloride], the IC50 in experiment [2] and in experiment [3] was less than 0.1 µM in each case. Further, the AC50 in experiment [1] (setting [4]) and in experiment [1] (setting [5]) was 0.1 to 1 µM each time.
For `CCOc1nc(-c2ccc(N(C)[C@@H]3C[C@H]4CC[C@@H](C3)N4)nn2)ccc1-c1cn[nH]c1` [Compound 261, (1R,3R,5S)—N-{6-[6-ethoxy-5-(1H-pyrazol-4-yl)pyridin-2-yl]pyridazin-3-yl}-N-methyl-8-azabicyclo[3.2.1]octan-3-amine], the IC50 in experiment [2] and in experiment [3] was less than 0.1 µM throughout. Further, the AC50 in experiment [1] (setting [4]) and in experiment [1] (setting [5]) was less than 0.1 µM throughout.
